The source of these data is PubChem BioAssay (NCI).

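Step 1: Grow cells in 96-well plates. Step 2: Expose to compound for 48 hours at 5 concentrations. Step 3: Interpolate endpoints linearly; if unreached, use highest concentration. GI50: concentration for 50% inhibition of growth. TGI: concentration producing complete growth inhibition.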

Among the test systems are MOLT-4 leukemia; HCT-15 colon; UO-31 renal; K-562 leukemia; COLO 205 colon; SF-295 CNS; IGROV1 ovarian; SF-539 CNS; HCC-2998 colon; KM12 colon.
Common to all, as to assay: DTP human tumour cell line panel, 48 h

Consider `Nc1n[n+]([O-])c2cc([N+](=O)[O-])ccc2[n+]1[O-]`, for which the TGI with MOLT-4 leukemia was determined as 4.16 µM; in the assay on HCT-15 colon, 13.6 µM; in the assay on UO-31 renal, 23.7 µM; with K-562 leukemia, 11.7 µM; in the assay with COLO 205 colon, 19 µM; with SF-295 CNS, 22.5 µM. Also, the figures for the TGI in the assay with IGROV1 ovarian and in the assay with SF-539 CNS were 13.2 µM and 16 µM, respectively.

For `O=C1C=CC2(CCCCCCC2=O)CC1` (stereo not given), the TGI in the assay on MOLT-4 leukemia, with HCT-15 colon, in the assay on HCC-2998 colon, with KM12 colon, in the assay with UO-31 renal and with COLO 205 colon was > 100 µM throughout. For the same compound, the total growth inhibition concentration (TGI) in the assay with SF-295 CNS, in the assay with IGROV1 ovarian and in the assay on SF-539 CNS was > 100 µM each time.

As to `COc1cc(/C=C/C(=O)c2cccc3ccccc23)cc(OC)c1OC`, the TGI was determined as 34.4 µM in the assay on MOLT-4 leukemia; 28.2 µM in the assay on HCC-2998 colon; 30.5 µM in the assay with UO-31 renal; 14.1 µM with K-562 leukemia; 22.2 µM with SF-295 CNS; 43.4 µM in the assay with IGROV1 ovarian.

Turning to `COC(=O)c1cc(-c2ccc3ccccc3c2)[nH]c(=O)c1C#N`, the TGI in the assay on HCT-15 colon, with HCC-2998 colon, with KM12 colon, with UO-31 renal, in the assay with COLO 205 colon and with SF-295 CNS was > 100 µM in each case. In addition, the TGI in the assay on IGROV1 ovarian and in the assay with SF-539 CNS was > 100 µM each time.

Regarding `Cc1cc(F)c(C(=O)Nc2cccc(-c3nncn3C(C)C)n2)cc1-n1cnc(C2CC2)c1`, the GI50 was 10.1 µM in the assay with MOLT-4 leukemia; 15.6 µM in the assay on HCT-15 colon; 14.3 µM in the assay with HCC-2998 colon; 20.7 µM with KM12 colon; 3.05 µM with UO-31 renal; 4.2 µM with COLO 205 colon. For the same compound, the values for the GI50 in the assay on SF-295 CNS, with IGROV1 ovarian and with SF-539 CNS were 13.3 µM, 6.89 µM and 11.6 µM, respectively. The TGI was 54.2 µM in the assay on MOLT-4 leukemia; 96.4 µM with HCT-15 colon; > 100 µM with HCC-2998 colon; 95.6 µM with KM12 colon; 23.7 µM in the assay with UO-31 renal; 21.3 µM in the assay on COLO 205 colon. For the same compound, the TGI turned out to be 80.9 µM with SF-295 CNS, 61.7 µM in the assay on IGROV1 ovarian and 34.4 µM in the assay on SF-539 CNS.

`Cc1ccccc1NC(=O)CC1C(=O)Nc2ccccc2S1=O` (stereo not given): the TGI in the assay with MOLT-4 leukemia, in the assay with HCT-15 colon, with HCC-2998 colon, with UO-31 renal, in the assay on K-562 leukemia and with SF-295 CNS was > 100 µM each time. The results for the TGI with IGROV1 ovarian and in the assay with SF-539 CNS were > 100 µM and 94.3 µM, respectively.

For the compound `Cc1ccc2nc(NC(=O)C(=O)C(C(=O)c3ccc4ccccc4c3)C3OC(=O)c4ccccc43)sc2c1` (stereo not given), the TGI in the assay on HCC-2998 colon came out at 23.7 µM; in the assay with KM12 colon, 37.4 µM; in the assay on UO-31 renal it was 28.6 µM; in the assay on COLO 205 colon, 34.6 µM; with SF-295 CNS, 21 µM; in the assay with IGROV1 ovarian, 44.3 µM. In addition, in the assay on SF-539 CNS, the TGI was 9.21 µM.

On to `CCN(C(=O)N1CCN(c2cc3c(cc2F)c(=O)c(C(=O)O)cn3C2CC2)CC1)c1nc(-c2ccccc2)cs1`, for which the GI50 with HCT-15 colon was 2.9 µM; in the assay on HCC-2998 colon it was 3.28 µM; in the assay on KM12 colon it was 2.94 µM; with UO-31 renal, 2.31 µM; with K-562 leukemia it was 3.2 µM; in the assay on COLO 205 colon, 2.58 µM. The GI50 in the assay on SF-295 CNS is 2.24 µM; with IGROV1 ovarian, 3.12 µM; with SF-539 CNS, 2.48 µM. Besides, the TGI with HCT-15 colon is > 100 µM; with HCC-2998 colon, 79.3 µM; with KM12 colon, > 100 µM; in the assay on UO-31 renal it was > 100 µM; in the assay on K-562 leukemia, > 100 µM; in the assay on COLO 205 colon, 7.1 µM. Further, the TGI was 8.51 µM in the assay with SF-295 CNS, > 100 µM in the assay on IGROV1 ovarian and 7.51 µM in the assay with SF-539 CNS.

Consider `COc1ccc2[nH]c(Cl)c(/C=C3/C(=O)Nc4ccccc43)c2c1`, for which the GI50 was 0.611 µM in the assay on HCT-15 colon; 0.563 µM in the assay with KM12 colon; 0.878 µM in the assay on UO-31 renal; 0.444 µM in the assay with K-562 leukemia; 0.427 µM in the assay with COLO 205 colon; 0.574 µM in the assay on SF-295 CNS. The GI50 in the assay with IGROV1 ovarian was 0.724 µM; in the assay with SF-539 CNS, 0.483 µM. Further, the TGI with HCT-15 colon amounted to 3.36 µM; in the assay on KM12 colon, 3.09 µM; in the assay on UO-31 renal it was 9.96 µM; in the assay on K-562 leukemia, 13.2 µM; with COLO 205 colon, 3.25 µM; with SF-295 CNS, 1.28 µM. Also, the values for the TGI in the assay on IGROV1 ovarian and in the assay with SF-539 CNS were 20.7 µM and 0.731 µM, respectively.

In the case of `CC(=O)OC1C[C@H]2C(OC(=O)c3ccccc3)C3C4(OC(C)=O)COC4C[C@H](OC(C)=O)[C@@]3(C)C(OC(C)=O)[C@H](OC(C)=O)C(=C1C)C2(C)C` (stereo not given in full), the TGI in the assay on MOLT-4 leukemia was > 100 µM; in the assay with HCT-15 colon, > 100 µM; in the assay with KM12 colon it was > 100 µM; in the assay on UO-31 renal, 79.8 µM; in the assay on K-562 leukemia, > 100 µM; in the assay with COLO 205 colon it was > 100 µM. Also, the TGI with SF-295 CNS, in the assay on IGROV1 ovarian and in the assay on SF-539 CNS was > 100 µM in each case.

For the compound `CCCCCCCCSC(=O)NCCCC`, the TGI in the assay with MOLT-4 leukemia is 87 µM; in the assay on HCT-15 colon, 96.8 µM; with KM12 colon, > 100 µM; in the assay with UO-31 renal it was 51.6 µM; with K-562 leukemia, > 100 µM; with COLO 205 colon it was > 100 µM. The TGI with SF-295 CNS, in the assay on IGROV1 ovarian and in the assay with SF-539 CNS was > 100 µM each time.

In the case of `O=C(Nc1ccc(OS(=O)(=O)c2ccc(F)cc2)cc1)C12CC3CC(CC(C3)C1)C2`, the GI50 in the assay on HCT-15 colon is 0.558 µM; with HCC-2998 colon, > 28.2 µM; in the assay on KM12 colon it was 1.15 µM; in the assay with UO-31 renal, 6.21 µM; with K-562 leukemia, 0.319 µM; in the assay on COLO 205 colon, 0.434 µM. The GI50 is 1.57 µM in the assay with SF-295 CNS, 16.1 µM in the assay with IGROV1 ovarian and 0.75 µM in the assay with SF-539 CNS. Further, the TGI in the assay on HCT-15 colon, with HCC-2998 colon, with KM12 colon, with UO-31 renal, in the assay with K-562 leukemia and in the assay on COLO 205 colon was > 100 µM each time. In addition, the results for the TGI in the assay with SF-295 CNS, in the assay with IGROV1 ovarian and in the assay on SF-539 CNS were 29.1 µM, > 62.5 µM and > 100 µM, respectively.

Regarding `O=C(O)C1C2C=CC(O2)C1C(=O)NCc1cccnc1` (stereo not given), the TGI in the assay with MOLT-4 leukemia, with HCT-15 colon, with KM12 colon, in the assay on UO-31 renal, in the assay on K-562 leukemia and in the assay with COLO 205 colon was > 100 µM each time. Also, the TGI in the assay with SF-295 CNS, in the assay with IGROV1 ovarian and in the assay on SF-539 CNS was > 100 µM in each case.

Regarding `O=C1/C(=C/c2cccnc2)SC(=S)N1Cc1ccco1`, the TGI in the assay with MOLT-4 leukemia is 14.3 µM; with HCT-15 colon it was > 100 µM; in the assay with KM12 colon it was 14.5 µM; with UO-31 renal it was 8.02 µM; in the assay on K-562 leukemia, > 48 µM; in the assay with COLO 205 colon, > 42.2 µM. Also, the values for the TGI with SF-295 CNS, in the assay on IGROV1 ovarian and in the assay on SF-539 CNS were > 100 µM, > 42.3 µM and 6.12 µM, respectively.

With `O=C1Cc2c(-c3ccccc3)cc(-c3ccccc3)nc2-c2ccccc2N1`, the TGI was 4.4 µM in the assay on HCT-15 colon; 11.5 µM in the assay with HCC-2998 colon; > 100 µM with KM12 colon; 11.4 µM in the assay on UO-31 renal; > 100 µM in the assay with K-562 leukemia; 63.7 µM in the assay on COLO 205 colon. Besides, the TGI turned out to be 10.7 µM with SF-295 CNS, 68.5 µM with IGROV1 ovarian and 34.4 µM with SF-539 CNS.

Turning to `CCn1cnc(C[C@H](NC(=O)[C@H](CCCCNC(=O)Nc2cc(C(F)(F)F)cc(C(F)(F)F)c2)NC(=O)Nc2cc(C(F)(F)F)cc(C(F)(F)F)c2)C(=O)OC)c1`, the GI50 is > 10 µM with HCT-15 colon; 3.98 µM with HCC-2998 colon; 4.41 µM in the assay on KM12 colon; > 10 µM in the assay on UO-31 renal; > 10 µM with COLO 205 colon; > 10 µM in the assay with SF-295 CNS. Besides, the figures for the GI50 in the assay with IGROV1 ovarian and in the assay with SF-539 CNS were 5.27 µM and > 10 µM, respectively. The TGI in the assay with HCT-15 colon, in the assay with HCC-2998 colon, with KM12 colon, in the assay with UO-31 renal, in the assay with COLO 205 colon and in the assay on SF-295 CNS was > 10 µM each time. The TGI in the assay with IGROV1 ovarian and with SF-539 CNS was > 10 µM in each case.

`CN1CCN(CCCOc2cccc3nc(Nc4cc(Cl)cc(Cl)c4)ccc23)CC1`: the GI50 is 1.42 µM in the assay with HCT-15 colon; 1.64 µM with HCC-2998 colon; 1.72 µM in the assay on KM12 colon; 1.49 µM with UO-31 renal; 1.63 µM in the assay on COLO 205 colon; 1.72 µM with SF-295 CNS. Further, the figures for the GI50 in the assay with IGROV1 ovarian and in the assay on SF-539 CNS were 1.68 µM and 1.57 µM, respectively. Moreover, the TGI with HCT-15 colon amounted to 2.83 µM; in the assay with HCC-2998 colon it was 3.17 µM; in the assay on KM12 colon, 3.29 µM; in the assay on UO-31 renal it was 2.95 µM; with COLO 205 colon, 3.13 µM; in the assay on SF-295 CNS, 3.32 µM. Also, the TGI in the assay on IGROV1 ovarian came out at 3.59 µM; in the assay with SF-539 CNS, 3.03 µM.

On to `Oc1ccc2ccccc2c1CCc1c(O)ccc2ccccc12`, for which the TGI in the assay on HCT-15 colon is 28 µM; in the assay on HCC-2998 colon it was 21.8 µM; in the assay on KM12 colon, 24.8 µM; with K-562 leukemia, 24.9 µM; in the assay on COLO 205 colon it was 29.1 µM; in the assay on SF-295 CNS it was 28.7 µM. The compound also gave a TGI with SF-539 CNS of 30.3 µM.
